Laboratory results: patent US20240140895A1, “NOVEL AROMATIC MOLECULES” (XENIOPRO GmbH, priority 2018, published 2024)

Key:
Format in all cases: cell-based
[1] = system: Notch signaling (human Notch1 receptor, hNotch1ΔE); assay: Notch reporter assay (dual luciferase, HeLa cells transfected with hNotch1ΔE); conditions: 10 μM
From the text: The activation level of Notch signaling can be quantified in vitro reliably by measuring the expression levels of Notch specific target genes. This can be accomplished by the quantification of corresponding mRNA or protein of a particular Notch target gene. Alternatively, cells can be genetically modified to carry a luciferase gene as an artificial Notch target gene, which is expressed in dependence of Notch activity. In this setting, Notch signaling levels can be quantified by measuring the luciferase-derived bioluminescence values.
An according Notch-reporter assay, i.e. a luciferase-based luminescence readout, was used here to quantify the ability of the claimed compounds to augment Notch signaling in a cellular system. […] After 24 hours of transfection, the transfected cells were carefully detached from the dish using 0.5 mM EDTA in PBS and seeded into 96-well plates suitable for luminescence readouts (CORNING, #3610) at 10,000 cells per well. […] Directly after the lysis, first the Firefly and then the Renilla luciferase values were measured consecutively from the same well with a luminescence reader immediately after applying 15 μL per well each of the corresponding enzyme substrates needed to create the luminescence signals (Promega, Dual-Luciferase® Reporter Assay System, #E1910). […]

[2] = system: MDA-MB-231 cells (human breast carcinoma cells); assay: Proliferation assay (alamarBlue) with MDA-MB-231 cells; conditions: Homo sapiens, read-out: Activity Range: weighted arithmetic mean (AVEw) of normalized fluorescence intensity relative to DMSO basis level 1.0
From the text: (§1) The antiproliferative activities of compounds falling under formula (Ia), (Tb) and (Ic), respectively, were investigated on cells or cell lines originating from a disorder of the haematopoietic system, including the myeloid cell compartment and the lymphoid cell compartment (T-cells and B-cells), the neuroendocrine system, the cervix, the breast, the ovaries, the lung, the gastrointestinal tract, and the mucosal epithelium, as well as from the skin epithelium and from the muscle. To this end, HL-60 cells, NB-4 cells, HH cells, RPMI-8402 cells, TANOUE cells, TT cells, HeLa cells, MDA-MB-231 cells, FU-OV-1 cells, LOU-NH91 cells, 23132/87 cells, CAL-27 cells, BHY cells, SCC-25 cells, A-431 cells, human primary epidermal keratinocytes (HPEK), and C2C12 cells were seeded into 96-well plates suitable for fluorescence assays (CORNING #3598) at following initial cell numbers: 1000 cells per well for HL-60; 1000 cells per well for NB-4; 5000 cells per well for HH; 5000 cells per well for RPMI-8402; 1500 cells per well for TANOUE; 9000 cells per well for TT; 2000 cells per well for HeLa; 3000 cells per well for MDA-MB-231; 3000 cells per well for FU-OV-1; 4000 cells per well for LOU-NH91; 2000 cells per well for 23132/87; 2000 cells per well for CAL-27; 1500 cells per well for BHY; 1500 cells per well for SCC-25; 700 cells per well for A-431; 1000 cells per well for HPEK; 500 cells per well for C2-C12. The cells were treated with compounds at indicated final concentrations (diluted from the 1000× stock-solutions in DMSO to a final DMSO concentration of 0.1% v/v in H2O (Water For Injection, WFI, Fisherscientific #10378939)) or with the empty carrier DMSO at 0.1% v/v as control for 5 days. At day 5 after starting the treatments the cells were subjected to the alamarBlue® Proliferation Assay (Bio-Rad Serotec GmbH, BUF012B) according to the protocol of the manufacturer. The readout was taken with a multi-well plate-reader in the fluorescence mode with applying a filter for excitation at 560 nm (band width 10 nm) and for emission at 590 nm (band width 10 nm). Control treatments for growth inhibition with commercial compounds such as Methotrexate (MTREX) and Resveratrol (RES) were included on every plate. Some of the test compounds of the present invention were obtained and applied as their salts. According cases are indicated in the column “Specification” in Table 30 to Table 62 and by their sum formula in Table 63.
(§2) The assays were performed in duplicate or more replicates of independent single experiments each containing a six-fold replicate for every condition. For every individual plate, the measured fluorescence intensity values of the conditions with compound treatment were normalized against the corresponding equally weighted arithmetic mean of the fluorescence intensity values of the six DMSO treated control wells in order to obtain the relative values to a baseline level of 1.0.
(§3) Two independent outlier analyses were performed according to the methods by Peirce and Chauvenet (Ross, Journal of Engineering Technology 2003, 1-12). Outliers confirmed by at least one of the methods were excluded from the calculations but not more than one value out of six per compound within a single experiment. The weighted arithmetic mean (here abbreviated as AVEw) for each compound was calculated from the normalized values over all independent replicates of the single experiments comprising the six replicates each. The corresponding standard deviation for the weighted arithmetic mean was calculated according to the method described by Bronstein et al. (Bronstein, Semendjajew, Musiol, Muhlig, Taschenbuch der Mathematik, 5th edition 2001 (German), publisher: Verlag Harri Deutsch, Frankfurt am Main and Thun) and was combined with the Gauβ′ error propagation associated with the performed calculation for the normalization. The resulting standard deviation is herein referred to as “combined standard deviation”. […]

[3] = system: CAL-27 cells (human tongue squamous cell carcinoma cells); assay: Proliferation assay (alamarBlue) with CAL-27 cells; conditions: read-out: Activity Range: weighted arithmetic mean (AVEw) of normalized fluorescence intensity relative to DMSO basis level 1.0
From the text: as §1, §2, §3

[4] = system: HL-60 cells (human acute myeloid leukemia cells); assay: Proliferation assay (alamarBlue) with HL-60 cells
From the text: as §1, §2, §3

[5] = system: SCC-25 cells (human tongue squamous cell carcinoma cells); assay: Proliferation assay (alamarBlue) with SCC-25 cells; conditions: Homo sapiens, read-out: Activity Range: weighted arithmetic mean (AVEw) of normalized fluorescence intensity relative to DMSO basis level 1.0
From the text: as §1, §2, §3

[6] = system: NB-4 cells (human acute promyelocytic leukemia cells); assay: Proliferation assay (alamarBlue) with NB-4 cells
From the text: as §1, §2, §3

[7] = system: 23132/87 cells (human gastric adenocarcinoma cells); assay: Proliferation assay (alamarBlue) with 23132/87 cells; conditions: read-out: Activity Range: weighted arithmetic mean (AVEw) of normalized fluorescence intensity relative to DMSO basis level 1.0
From the text: as §1, §2, §3

[8] = system: TT cells (human medullary thyroid carcinoma cells); assay: Proliferation assay (alamarBlue) with TT cells; conditions: compound at 20 μM
From the text: (§4) The antiproliferative activities of compounds falling under formula (Ia), (Tb) and (Ic), respectively, were investigated on cells or cell lines originating from a disorder of the haematopoietic system, including the myeloid cell compartment and the lymphoid cell compartment (T-cells and B-cells), the neuroendocrine system, the cervix, the breast, the ovaries, the lung, the gastrointestinal tract, and the mucosal epithelium, as well as from the skin epithelium and from the muscle. To this end, HL-60 cells, NB-4 cells, HH cells, RPMI-8402 cells, TANOUE cells, TT cells, HeLa cells, MDA-MB-231 cells, FU-OV-1 cells, LOU-NH91 cells, 23132/87 cells, CAL-27 cells, BHY cells, SCC-25 cells, A-431 cells, human primary epidermal keratinocytes (HPEK), and C2C12 cells were seeded into 96-well plates suitable for fluorescence assays (CORNING #3598) at following initial cell numbers: 1000 cells per well for HL-60; 1000 cells per well for NB-4; 5000 cells per well for HH; 5000 cells per well for RPMI-8402; 1500 cells per well for TANOUE; 9000 cells per well for TT; 2000 cells per well for HeLa; 3000 cells per well for MDA-MB-231; 3000 cells per well for FU-OV-1; 4000 cells per well for LOU-NH91; 2000 cells per well for 23132/87; 2000 cells per well for CAL-27; 1500 cells per well for BHY; 1500 cells per well for SCC-25; 700 cells per well for A-431; 1000 cells per well for HPEK; 500 cells per well for C2-C12. […] The readout was taken with a multi-well plate-reader in the fluorescence mode with applying a filter for excitation at 560 nm (band width 10 nm) and for emission at 590 nm (band width 10 nm). […]
as §2, with “1.0. […]” for “1.0.”

[9] = system: LOU-NH91 cells (human lung squamous cell carcinoma cells); assay: Proliferation assay (alamarBlue) with LOU-NH91 cells; conditions: 20 μM
From the text: as §4
as §2, with “1.0. […]” for “1.0.”

[10] = system: HH cells (human cutaneous T-cell lymphoma cells); assay: Proliferation assay (alamarBlue) with HH cells; conditions: Table 34, compound at 20 μM, read-out: Activity Range (AVEw, weighted arithmetic mean of normalized fluorescence intensity, DMSO = 1.0)
From the text: as §1, §2, §3

[11] = system: BHY cells (human oral squamous cell carcinoma cells); assay: Proliferation assay (alamarBlue) with BHY cells; conditions: read-out: Activity Range: weighted arithmetic mean (AVEw) of normalized fluorescence intensity relative to DMSO basis level 1.0
From the text: as §1, §2, §3

[12] = system: RPMI-8402 cells (human T cell acute lymphoblastic leukemia cells); assay: Proliferation assay (alamarBlue) with RPMI-8402 cells; conditions: Homo sapiens, read-out: Activity Range: weighted arithmetic mean (AVEw) of normalized fluorescence intensity relative to DMSO basis level 1.0
From the text: as §1, §2, §3

[13] = system: TANOUE cells (human B cell leukemia cells); assay: Proliferation assay (alamarBlue) with TANOUE cells; conditions: Homo sapiens, B-cell, read-out: Activity Range: weighted arithmetic mean (AVEw) of normalized fluorescence intensity relative to DMSO basis level 1.0
From the text: as §1, §2, §3

[14] = system: HeLa cells (human cervical adenocarcinoma cells); assay: Proliferation assay (alamarBlue) with HeLa cells; conditions: compound at 20 μM
From the text: as §4
as §2, with “1.0. […]” for “1.0.”

[15] = system: C2C12 cells (murine myoblast cells); assay: Proliferation assay (alamarBlue) with C2C12 cells; conditions: Mus musculus, compound at 20 μM, read-out: Activity Range: weighted arithmetic mean (AVEw) of normalized fluorescence intensity, relative to DMSO basis level 1.0
From the text: as §1, §2, §3

[16] = system: FU-OV-1 cells (human ovarian carcinoma cells); assay: Proliferation assay (alamarBlue) with FU-OV-1 cells; conditions: 20 μM
From the text: as §4
as §2, with “1.0. […]” for “1.0.”

[17] = system: A-431 cells (human epidermoid squamous cell carcinoma cells); assay: Proliferation assay (alamarBlue) with A-431 cells
From the text: as §1, §2, §3

SMILES	Activity Range: weighted arithmetic mean (AVEw) of double-normalized Notch-reporter luminescence, relative to DMSO basis level 1.0 [1]	activity at 20 µM [2]	activity at 20 µM [3]	activity at 20 µM ([4]; Homo sapiens, Table 30, compound at 20 μM, read-out: Activity Range (AVEw, weighted arithmetic mean of normalized fluorescence intensity, DMSO = 1.0))	Activity Range (AVEw, weighted arithmetic mean of normalized fluorescence intensity, DMSO = 1.0) ([4]; Table 31, compound at 20 μM)	activity at 20 µM [5]	activity at 20 µM ([6]; Homo sapiens, Table 32, compound at 20 μM, read-out: Activity Range (AVEw, weighted arithmetic mean of normalized fluorescence intensity, DMSO = 1.0))	Activity Range (AVEw, weighted arithmetic mean of normalized fluorescence intensity, DMSO = 1.0) ([6]; Table 33, compound at 20 μM)	activity at 20 µM [7]	Activity Range: weighted arithmetic mean (AVEw) of normalized fluorescence intensity relative to DMSO basis level 1.0 [8]	Activity Range: weighted arithmetic mean (AVEw) of normalized fluorescence intensity relative to DMSO basis level 1.0 [9]	activity at 20 µM [10]	activity at 20 µM [11]	activity at 20 µM [12]	activity at 20 µM [13]	Activity Range: weighted arithmetic mean (AVEw) of normalized fluorescence intensity relative to DMSO basis level 1.0 [14]	activity at 20 µM [15]	Activity Range: weighted arithmetic mean (AVEw) of normalized fluorescence intensity relative to DMSO basis level 1.0 [16]	activity at 20 µM ([17]; Homo sapiens, 20 μM, read-out: Activity Range: weighted arithmetic mean (AVEw) of normalized fluorescence intensity relative to DMSO basis level 1.0)	Activity Range: weighted arithmetic mean (AVEw) of normalized fluorescence intensity relative to DMSO basis level 1.0 ([17]; compound at 20 μM)
O=Cc1ccc(Oc2ccc(C3CCCCC3)cc2)cc1 [XPA-0020]	2.0 ≤ AVEw																			
CN(Cc1cnc2nc(N)nc(N)c2n1)c1ccc(C(=O)N[C@@H](CCC(=O)O)C(=O)O)cc1 [MTREX, Methotrexate, reference compound]		60%	10%	10 ± 10%	0.1 ± 0.1	50 ± 10%	10%	0.1 ± 0.0	30%	1.0 ± 0.0	0.5 ± 0.1	40 ± 10%	30%	10%	10%	0.4 ± 0.0	10%	1 ± 0.0	20 ± 10%	0.2 ± 0.1
C[C@H](NC(=O)Cc1cc(F)cc(F)c1)C(=O)N[C@H](C(=O)OC(C)(C)C)c1ccccc1 [DAPT]	0.1 ± 0.0																			
